Patent US20250388593A1 (MITSUBISHI TANABE PHARMA CORPORATION, priority 2023, published 2025)

biological target: CRBN truncate (318-426) (Homo sapiens (Human), UniProt Q96SW2); assay: Measurement of molecular interactions using surface plasmon resonance (SPR), Biacore T200; format: binding; conditions: 25° C., immobilized CRBN truncate, upper limit of measurement 200 μM
Outline: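 C-terminally Avi-tagged CRBN (318-426) captured on a streptavidin SA chip on a Biacore T200. Running buffer 10 mM HEPES pH 7.5, 150 mM NaCl, 1 mM TCEP, 0.005% Tween 20, 2% DMSO; 60 s contact, 120 s dissociation.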

CRBN truncate (318-426), sequence (Q96SW2 318-426): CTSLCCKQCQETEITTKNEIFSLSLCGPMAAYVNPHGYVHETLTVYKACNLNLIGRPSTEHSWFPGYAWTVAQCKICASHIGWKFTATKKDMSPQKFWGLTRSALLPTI

| SMILES | Kd [µM] |
| --- | --- |
| CC(C)(C)OC(=O)c1ccc(N2CCC3(CCCC(=O)NC3=O)CC2=O)cc1 (stereo not shown) [Example 109, tert-Butyl 4-(4,7,9-trioxo-3,8-diazaspiro [5.6]dodecan-3-yl) benzoate] | < 50 |
| CC(C)(C)OC(=O)c1cccc(N2CCC3(CCCC(=O)NC3=O)CC2=O)c1 (stereo not shown) [Example 110, tert-Butyl 3-(4,7,9-trioxo-3,8-diazaspiro [5.6]dodecan-3-yl) benzoate] | ≥ 100 |
| CC(C)(C)OC(=O)c1ccc(CN2CCC3(CCCC(=O)NC3=O)CC2=O)cc1 (stereo not shown) [Example 111, tert-Butyl 4-[(4,7,9-trioxo-3,8-diazaspiro [5.6]dodecan-3-yl)methyl]benzoate] | 50 to 100 |
| CC(C)(C)OC(=O)c1ccc(N2CC3(CCCC(=O)NC3=O)CC2=O)nc1 (stereo not shown) [Example 113, tert-Butyl 6-(3,6,8-trioxo-2,7-diazaspiro [4.6]undecan-2-yl) pyridine-3-carboxylate] | ≥ 100 |
| CC(C)(C)OC(=O)c1cnc(N2CCCC(=O)NC2=O)s1 [Example 115, tert-Butyl 2-(2,4-dioxo-1,3-diazepan-1-yl) thiazole-5-carboxylate] | 50 to 100 |
| O=C1CCCN(c2nc3ccc([N+](=O)[O-])cc3s2)C(=O)N1 [Example 116, 1-(6-Nitro-1,3-benzothiazol-2-yl)-1,3-diazepane-2,4-dione] | < 50 |
| O=C1CCCN(c2ccc3ncccc3c2)C(=O)N1 [Example 117, 1-Quinolin-6-yl-1,3-diazepane-2,4-dione] | ≥ 100 |
| Nc1ccc2nc(N3CCCC(=O)NC3=O)sc2c1 [Example 118, 1-(6-Amino-1,3-benzothiazol-2-yl)-1,3-diazepane-2,4-dione] | ≥ 100 |
| CN(c1ccc([N+](=O)[O-])cc1)C1CCCC(=O)NC1=O (stereo not shown) [Example 120, 3-(N-Methyl-4-nitro-anilino) azepane-2,7-dione] | ≥ 100 |
| CC(=O)Nc1ccc(N(C)C2CCCC(=O)NC2=O)cc1 (stereo not shown) [Example 121, N-[4-[(2,7-Dioxoazepan-3-yl)-methyl-amino]phenyl]acetamide] | ≥ 100 |
| O=C1CCCC2(CCN(C(=O)c3ccccc3)C2)C(=O)N1 (stereo not shown) [Example 122, 2-Benzoyl-2,7-diazaspiro [4.6]undecane-6,8-dione] | ≥ 100 |
| CC(C)(C)OC(=O)c1cccc(N2CCC3(CCCC(=O)NC3=O)C2)c1 (stereo not shown) [Example 123, tert-Butyl 3-(6,8-dioxo-2,7-diazaspiro [4.6]undecan-2-yl) benzoate] | < 50 |
| COc1ccnc(N2CCC3(CCCC(=O)NC3=O)C2)c1 (stereo not shown) [Example 125, 2-(4-Methoxy-2-pyridyl)-2,7-diazaspiro [4.6]undecane-6,8-dione] | ≥ 100 |
| CC(C)(C)OC(=O)N1CCN(c2ccnc(N3CCC4(CCCC(=O)NC4=O)C3)c2)CC1 (stereo not shown) [Example 126, tert-Butyl 4-[2-(6,8-dioxo-2,7-diazaspiro [4.6]undecan-2-yl)-4-pyridyl]piperazine-1-carboxylate] | ≥ 100 |
| O=C1CCCC2(CCN(c3ncc(Br)cn3)C2)C(=O)N1 (stereo not shown) [Example 127, 2-(5-Bromopyrimidin-2-yl)-2,7-diazaspiro [4.6]undecane-6,8-dione] | ≥ 100 |
| CC(C)(C)OC(=O)c1ccc(N2CCC3(CCCC(=O)NC3=O)C2)cc1 (stereo not shown) [Example 128, tert-Butyl 4-(6,8-dioxo-2,7-diazaspiro [4.6]undecan-2-yl) benzoate] | < 50 |

| SMILES | Kd [µM] |
| --- | --- |
| CC(C)(C)OC(=O)c1ccc(N2CCC3(CC=CC(=O)NC3=O)C2)nc1 (stereo not shown) [Example 131, tert-Butyl 6-(6,8-dioxo-2,7-diazaspiro [4.6]undec-9-en-2-yl) pyridine-3-carboxylate] | ≥ 100 |
| CC1(c2cccc(N)c2)CCCC(=O)NC1=O (stereo not shown) [Example 133, 3-(3-Aminophenyl)-3-methyl-azepane-2,7-dione] | ≥ 100 |
| CC(=O)Nc1cccc(C2(C)CCCC(=O)NC2=O)c1 (stereo not shown) [Example 134, N-[3-(3-Methyl-2,7-dioxoazepan-3-yl)phenyl]acetamide] | 50 to 100 |
| O=C1CCCC(n2nc(I)c3ccccc32)C(=O)N1 (stereo not shown) [Example 135, 3-(3-Iodoindazol-1-yl)azepane-2,7-dione] | < 50 |
| CC(C)(C)OC(=O)/C=C/c1nn(C2CCCC(=O)NC2=O)c2ccccc12 (stereo not shown) [Example 136] | 50 to 100 |
| CC(C)(C)OC(=O)Cn1c(=O)n(C2CCCC(=O)NC2=O)c2ccccc21 (stereo not shown) [Example 138, tert-Butyl 2-[3-(2,7-dioxoazepan-3-yl)-2-oxo-benzimidazol-1-yl]acetate] | 50 to 100 |
| Cn1c(=O)n(C2CCCC(=O)NC2=O)c2ccc(Br)cc21 (stereo not shown) [Example 139, 3-(5-Bromo-3-methyl-2-oxobenzimidazol-1-yl) azepane-2,7-dione] | 50 to 100 |
| Cn1c(=O)n(C2CCCC(=O)NC2=O)c2ccc(/C=C/C(=O)OC(C)(C)C)cc21 (stereo not shown) [Example 140, tert-Butyl (E)-3-[1-(2,7-oxazepan-3-yl)-3-methyl-2-oxo-benzimidazol-5-yl]-2-propenoate] | ≥ 100 |
| Cn1c(=O)n(C2CCCC(=O)NC2=O)c2ccc(CCC(=O)OC(C)(C)C)cc21 (stereo not shown) [Example 141] | 50 to 100 |
| NC(=O)c1nn(-c2ccc(C(=O)NCCOCCOCCNC(=O)c3ccnc(N4CCC5(CCCC(=O)NC5=O)C4)c3)cc2)cc1NC(=O)c1coc(-c2ccnc(NCC3CC3)c2)n1 (stereo not shown) [Example 142, N-[3-Carbamoyl-1-[4-[2-[2-[2-[[2-(6,8-dioxo-2,7-diazaspiro [4.6]undecan-2-yl)pyridine-4-carbonyl]amino]ethoxy]ethoxy]ethylcarbamoyl]phenyl]-pyrazol-4-yl]-2-[2-(cyclopropylmethylamino)-4-pyridyl]oxazole-4-carboxamide] | < 50 |
| NC(=O)c1nn(-c2ccc(C(=O)NCCOCCOCCNC(=O)c3ccc(N4CCC5(CCCC(=O)NC5=O)CC4=O)nc3)cc2)cc1NC(=O)c1coc(-c2ccnc(NCC3CC3)c2)n1 (stereo not shown) [Example 143, N-[3-Carbamoyl-1-[4-[2-[2-[2-[[6-(4,7,9-trioxo-3,8-diazaspiro [5.6]dodecan-3-yl)pyridine-3-carbonyl]amino]ethoxy]ethoxy]ethylcarbamoyl]phenyl]pyrazol-4-yl]-2-[2-(cyclopropylmethylamino)-4-pyridyl]oxazole-4-carboxamide] | < 50 |
| NC(=O)c1nn(-c2ccc(C(=O)NCCOCCOCCNC(=O)CN3CCC4(CCCC(=O)NC4=O)CC3=O)cc2)cc1NC(=O)c1coc(-c2ccnc(NCC3CC3)c2)n1 (stereo not shown) [Example 144, N-[3-Carbamoyl-1-[4-[2-[2-[2-[[2-(4,7,9-trioxo-3,8-diazaspiro [5.6]dodecan-3-yl)acetyl]amino]ethoxy]ethoxy]ethylcarbamoyl]phenyl]pyrazol-4-yl]-2-[2-(cyclopropylmethylamino)-4-pyridyl]oxazole-4-carboxamide] | < 50 |
| CC(C)(C)OC(=O)NCCCCCCCc1cn(C2CCCC(=O)NC2=O)nn1 (stereo not shown) [Example 147, tert-Butyl N-[7-[1-(2,7-dioxoazepan-3-yl)triazol-4-yl]heptyl]carbamate] | ≥ 100 |
| O=C1CCCC(n2cc(CCCCCCCC(=O)OCc3ccccc3)nn2)C(=O)N1 (stereo not shown) [Example 148, Benzyl 8-[1-(2,7-dioxoazepan-3-yl)triazol-4-yl]octanoate] | 50 to 100 |
| CC(C)(C)OC(=O)COc1ccccc1-c1cn(C2CCCC(=O)NC2=O)nn1 (stereo not shown) [Example 149, tert-Butyl 2-[2-[1-(2,7-dioxoazepan-3-yl)triazol-4-yl]phenoxy]acetate] | ≥ 100 |
